Where “and” joins values, the source holds several entries; their conditions need not be identical. Identical values can stand only once.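 Growth conditions: 96-well plates. Treatment: test compound, 48 hours, 5 concentrations. Analysis: linear interpolation between bracketing concentrations; unreached endpoints set to highest concentration. GI50: concentration for 50% inhibition of growth. TGI: total growth inhibition.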
Assays:
Assay in all cases: NCI-60 cell line screen, 48 h
HT29 colon = test system: HT29 colon
NCI-H522 lung = test system: NCI-H522 lung
UO-31 renal = test system: UO-31 renal
SN12C renal = test system: SN12C renal
UACC-62 melanoma = test system: UACC-62 melanoma
ACHN renal = test system: ACHN renal
T-47D breast = test system: T-47D breast
BT-549 breast = test system: BT-549 breast
SF-539 CNS = test system: SF-539 CNS
HL-60(TB) leukemia = test system: HL-60(TB) leukemia

Row | SMILES | TGI (HT29 colon) | GI50 (NCI-H522 lung) | TGI (NCI-H522 lung) | GI50 (UO-31 renal) | TGI (UO-31 renal) | GI50 (SN12C renal) | TGI (SN12C renal) | GI50 (UACC-62 melanoma) | TGI (UACC-62 melanoma) | GI50 (ACHN renal) | TGI (ACHN renal) | TGI (T-47D breast) | TGI (BT-549 breast) | GI50 (SF-539 CNS) | TGI (SF-539 CNS) | GI50 (HL-60(TB) leukemia) | TGI (HL-60(TB) leukemia) | GI50 (HT29 colon) | GI50 (T-47D breast) | GI50 (BT-549 breast)
1 | Cc1cc(-c2c(F)cc3c4nn([C@H]5CC[C@@H](N(C)C)CC5)c(=O)c-4cn(C4CC4)c3c2F)cc(C)n1 | 1.1 µM | 0.0325 µM | 0.144 µM and 0.771 µM | 0.275 µM | 0.566 µM and 3.29 µM | 0.0207 µM | 0.0888 µM | 0.0468 µM | 0.255 µM and 0.754 µM | 0.0219 µM | 0.171 µM and 0.928 µM | 2.76 µM | 10.8 µM | 0.0561 µM | 0.174 µM and 0.62 µM | 0.00306 µM | 0.0322 µM and 0.235 µM |  |  | 
2 | Cc1c(C#N)cccc1[C@@H](C)Nc1nnc(C)c2cnc(N3CCOCC3)cc12 | > 100 µM | 17.5 µM | > 100 µM | 15.1 µM | > 100 µM | 17.9 µM | > 100 µM | 30.5 µM | > 100 µM | 21.4 µM | > 100 µM | 81.3 µM | 48.2 µM | 43.1 µM | > 100 µM | 22.8 µM | 63.7 µM | 35.2 µM | 18.5 µM | 13.1 µM
3 | COc1cc(OC)cc(C2C3=C(COC3=O)Nc3cc(OC)ccc32)c1 (stereo not given) | > 36.6 µM | < 0.01 µM | 0.836 µM | 0.0387 µM | > 67.7 µM | 0.0146 µM | > 77.6 µM | < 0.01 µM | > 81.2 µM | < 0.01 µM | 33.9 µM | > 100 µM | > 100 µM | < 0.01 µM | 15.7 µM | < 0.01 µM | < 0.0186 µM | < 0.01 µM | < 0.01 µM | 0.0138 µM
4 | CCCc1cc(=O)n2c(C(=O)Nc3ccc(F)cc3)c(C(=O)Nc3ccc(F)cc3)sc2n1 | > 160 µM | 73.3 µM | > 160 µM | 27.6 µM | 101 µM |  |  | 36.8 µM | > 160 µM | 17.3 µM | 57.7 µM | > 160 µM | > 160 µM | > 160 µM | > 160 µM | > 160 µM | > 160 µM | 47.1 µM | 87 µM | > 160 µM
5 | CC(C)OC(=S)Nc1ccc(Cl)c(/C=N/OC(C)(C)C)c1 | 28.6 µM |  | 30.8 µM |  | 27.2 µM |  | 31.6 µM |  | 30.9 µM |  | 28.7 µM | 38.7 µM | 34.1 µM |  | 31.7 µM |  | 37.8 µM |  |  | 
6 | CC/C(Cc1ccccc1)=C(\c1ccc(OCCN2CCCC2)cc1)c1ccc(OC(=O)NCc2ccccc2)cc1 | 3.47 µM | 1.99 µM | 4.14 µM | 1.61 µM | 3 µM | 1.81 µM | 3.33 µM | 1.81 µM | 3.24 µM | 1.69 µM | 3.06 µM | 4.23 µM | 3.47 µM | 1.7 µM | 3.09 µM | 1.93 µM | 3.98 µM | 1.82 µM | 1.41 µM | 1.79 µM
7 | COc1ccc(-c2ccc(/C=N/n3c(COc4ccccc4Cl)nn(CN4CCOCC4)c3=S)o2)c([N+](=O)[O-])c1 | > 100 µM | 38.9 µM | > 100 µM | 37.1 µM | > 100 µM | 32 µM | 96.7 µM | 35 µM | > 100 µM | 33.6 µM | > 100 µM | > 100 µM | 40.7 µM | 28.6 µM | 60.8 µM | 17 µM | 39 µM | 49.9 µM | 53.9 µM | 14.3 µM
8 | C=C1C(O)C2CC(C)(CO)C(=O)C2=C(CC(C)C)C12CC2 (stereo not given) | > 100 µM | 68.4 µM | > 100 µM | > 100 µM | > 100 µM | > 100 µM | > 100 µM | 78.6 µM | > 100 µM | 93.8 µM | > 100 µM | > 100 µM | > 100 µM | 51.6 µM | > 100 µM |  |  | > 100 µM | > 100 µM | > 100 µM
9 | O=C(NCC(F)(F)F)Nc1cccc(-c2cnc3cc(-c4ccc(F)cc4)ccn23)c1 | 1.23 µM | 0.225 µM | 0.962 µM | 0.575 µM | 5.53 µM | 1.54 µM | > 67.4 µM | 2.44 µM | > 56.2 µM | 2.53 µM | > 52.1 µM | 62 µM | > 61 µM | 0.522 µM | 3.5 µM | 0.58 µM | 24.7 µM | 0.314 µM | 2.69 µM | 1.31 µM
10 | CCCCCC(O)C(O)CCC[C@H](O)[C@H]1CC[C@H]([C@H]2CC[C@H]([C@H](O)CCCCCCCCCCCCC3=C[C@H](C)OC3=O)O2)O1 (stereo not given in full) | 8.31 µM |  | 23.9 µM | 4.46 µM | 5.67 µM and 20.5 µM | 13.6 µM | 66.6 µM |  | 7.54 µM | 2.41 µM | 6.27 µM and 20.8 µM | 25.6 µM | 2.79 µM and 25.5 µM | 12.1 µM | 37 µM |  | 4.28 µM |  | 2.12 µM | 
11 | CS(=O)(=O)c1ccc(Nc2nc(N[C@H]3CCCC[C@H]3N)nc3cc[nH]c(=O)c23)cc1 | 11.8 µM | 0.268 µM | 1.72 µM | 19.7 µM | 72.9 µM | 2.76 µM | > 100 µM | 1.5 µM | 3.5 µM | 5.24 µM | 90.1 µM | 77.6 µM | 5.51 µM | 2.24 µM | 7.09 µM | 0.533 µM | 6.6 µM | 2.48 µM | 0.891 µM | 1.63 µM
12 | N#CC1=C(N)Oc2c(ccc3ccccc23)C1c1cc(=O)oc2ccc(Cl)cc12 (stereo not given) | 6.89 µM | 0.348 µM | 2.97 µM | 1.82 µM | > 100 µM | 2.59 µM | 45.4 µM | 0.47 µM | 41.1 µM | 1.99 µM | 73.4 µM | 24.1 µM | 61.8 µM | 0.486 µM | 5.57 µM | 0.275 µM | 1.51 µM | 1.91 µM | 0.646 µM | 1.3 µM
13 | O=[N+]([O-])c1ccc(Cl)c(CNc2ncnc3c2ncn3C2CCCCO2)c1 (stereo not given) | > 100 µM |  | > 100 µM |  | > 100 µM |  | > 100 µM |  | > 100 µM |  | > 100 µM | > 100 µM | > 100 µM |  | 66.1 µM |  | 73.2 µM |  |  | 
14 | Cc1ccc(-c2nc(/C=N/Nc3cc(C)nc4ccc(Cl)cc34)c(C)o2)cc1 | 2.5 µM |  |  | 1.62 µM | 2.98 µM | 1.79 µM | 3.49 µM | 1.77 µM | 3.43 µM | 1.68 µM | 3.05 µM | 3.72 µM | 3.27 µM | 1.78 µM | 3.29 µM | 1.12 µM | 2.97 µM | 0.664 µM | 1.8 µM | 1.72 µM
15 | CN1Cc2ccccc2/C=C\c2ccccc21 | > 100 µM |  | > 100 µM |  | > 100 µM |  | > 100 µM |  | > 100 µM |  | > 100 µM | > 100 µM | > 100 µM |  | > 100 µM |  |  |  |  | 
16 | c1ccc(OCCC[P+](c2ccccc2)(c2ccccc2)c2ccccc2)cc1 | 9.21 µM | 0.574 µM | 4.24 µM | 13.9 µM | 36.6 µM | 2.61 µM | 12.5 µM |  |  | 8.94 µM | 52.8 µM | 29.5 µM | 17.1 µM | 3.07 µM | 18.3 µM | 0.285 µM | 0.832 µM | 0.984 µM | 0.383 µM | 1.42 µM
17 | [N-]=[N+]=NCCCn1c2c(c3ccc([N+](=O)[O-])cc3c1=O)C(=O)c1cc(Br)ccc1-2 | > 100 µM | > 100 µM | > 100 µM | > 100 µM | > 100 µM | > 100 µM | > 100 µM | > 100 µM | > 100 µM | > 100 µM | > 100 µM | > 100 µM | > 100 µM | > 100 µM | > 100 µM |  |  | > 100 µM | > 100 µM | > 100 µM
18 | CN(C)CCCn1c(=O)c2ccccc2c2cnc3[nH]ccc3c21 | 8.35 µM | 1.82 µM | 5.03 µM |  |  | 2.17 µM | 14.6 µM | 1.59 µM | 2.97 µM | 0.564 µM | 7.08 µM | 7.42 µM | 9.58 µM | 2.34 µM | 7.04 µM | 3.27 µM | 9.08 µM | 1.27 µM | 2.5 µM | 2.95 µM
19 | CCCCCCCCCCCCC(O)c1ccco1 (stereo not given) | > 100 µM | 20 µM | 41 µM | 19 µM | 39.7 µM | 17.1 µM | 31.7 µM | 17.7 µM | 32.4 µM | 17.9 µM | 31.7 µM | > 100 µM | 40.8 µM | 20.9 µM | 38.7 µM |  |  | 35.8 µM | 35.5 µM | 20.1 µM
20 | O=C(CN(/C=C/C(=O)C(F)(F)F)c1ccc(Cl)cc1)c1ccc(Cl)c(Cl)c1 | > 100 µM | 2.88 µM | 8.81 µM | 5.65 µM | 18.8 µM | 2.38 µM | 5.43 µM | 3.98 µM | 16.1 µM | 2.48 µM | 9.74 µM | 29.9 µM | 33.3 µM | 20.1 µM | 38 µM |  |  | 3.96 µM | 10.3 µM | 16.7 µM
